The record followed here is patent US9056923B2, “Mimetic peptides derived from collagen type IV and their use for treating angiogenesis- and lymphagiogenesis-dependent diseases” (THE JOHNS HOPKINS UNIVERSITY, priority 2010, dated 2015).

Entries after “also recorded” stand apart in the source; their conditions may differ. Like-named read-outs stand apart in the source and are kept apart here. Ends that are not written are not given here.

Assay [1] deals with HUVEC. It is filed as cell-based, human. The procedure, abridged: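 HUVEC plated at 2000 cells/well overnight, then exposed to peptides in fully supplemented medium for three days. WST-1 added in serum-free EBM-2 for four hours and absorbance read at 450 nm. Percent live cells taken relative to untreated cells in complete medium with 0.2% DMSO.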
The test system of assay [2] is MDA-MB-231 xenograft. Briefly: MDA-MB-231 orthotopic breast tumor xenograft. In kind it is in vivo, SCID mice. The protocol: For primary tumor inhibition studies, 1−2×10^6 tumor cells were injected into 4-6 wk old female SCID mice. After the tumors reached a size of 100 mm^3 the animals were randomized into groups of 10 animals each. The animals were treated with vehicle, SP2012, SP2000, or SP2024. The peptides were administered subcutaneously daily. Dosing was continued for 3 or 4 weeks and tumor sizes were measured every 3 days using calipers. The tumor volume was estimated using the formula V=a^2b/2 where a and b are the smaller and larger diameters.
For the tumor xenograft assay, animals were housed and treated according to the approved animal protocol of the Institutional Care and Use Committee at Johns Hopkins Medical Institution (JHMI). Orthotopic breast tumors were initiated in SCID mice using MDA-MB-231 cells. 2×10^6 cells per 100 μL aliquot of single cell suspension were injected in the breast mannary fat pad. Tumors reached volumes of 75 mm^3 to 100 mm^3 in approximately 14-21 days. Mice were randomized and arranged in groups (8 mice per group) with similar tumor volumes (no statistical difference among averages) and treatment was commenced. Peptides were administered once per day intraperitoneally (i.p.) at doses of 10 mg/kg (subcutaneous delivery was also tested with certain peptides). Paclitaxel was administered at 5 mg/kg once a week, and to maintain the daily treatment regime PBS was administered on the non-treatment days. Tumors were measured every fourth day using calipers and the tumor volume was calculated using the formula V=ab^2/2, where a is the larger diameter and b is the smaller diameter.

Assay [3] deals with MDA-MB-231 breast cancer cells. Briefly: MDA-MB-231 wound healing type migration assay (Oris Pro). It is filed as cell-based. The protocol:
Breast cancer cells MDA-MB-231 are not suitable for the RT-CIM type experiments due to their thin elongated phenotype, thus the inhibition of migration was investigated using a wound healing type assay. This assay was performed using the Oris Pro Migration assay (Platypus Technologies, CMA 1.101). Briefly, 20,000-25,000 cells/well in full media were added to the 96 well plate containing stoppers to block migration of cells to the center region of the wells. Cells were allowed to adhere for 4 hours, after which the stoppers were removed. Cells were washed one time with PBS and fully supplemented media, with or without compound, was added to the wells. […], cells were stained with calcein AM (0.5 μg/mL) (Invitrogen, CA) and the cells that migrated to the center of the well were quantified by fluorescence intensity measured using a Victor V plate reader (Perkin Elmer) and also imaged using a Leica or Nikon microscope.

In assay [4] the test system is MDA-MB-231 breast cancer cells. Briefly: MDA-MB-231 adhesion assay. In kind it is cell-based. The protocol: (§1) Similar to the migration assays, the inhibition activity of the peptide in cellular adhesion was assessed using the RT-CIM technology. In this case, 25,000 cells/well were plated in 16 wells E-plates (Roche, Basel Switzerland) in the presence or absence of the peptide. The adhesion was monitored over time (3 hours) by measuring changes in the electrical impedance, which is a direct measure of the cells adhering on the electrodes. […] Assays were performed in at least two independent replicates and each replicate was performed using two experimental duplicates.

The test system of assay [5] is lymphatic endothelial cells (LEC). Briefly: LEC migration assay. It is filed as cell-based. The protocol: (§2) The inhibitory potential of the peptides was measured using a real time migration assay system based on electrical impedance (RT-CIM, ACEA Biosciences, CA). CIM 16 well plates (Roche, 05665817001) are composed of a top and bottom chamber separated by a microporous (8 μm) polycarbonate membrane. The membrane was coated with fibronectin (20 μg/mL), and 45,000 cells/well in serum free media with or without peptides were added to the top compartment. Media with chemoattractant (i.e., fully supplemented EBM-2) was added to the bottom compartment of the chamber and the plate was incubated at 37° C. for 20 hours. The sensors integrated on the bottom side of the membrane monitor and continuously record changes in impedance as the cells move through the membrane. The RT-CIM technology allows for easy quantification of cell migration by monitoring the cell index derived from the measured impedances. Assays were performed in at least two independent replicates and each replicate was performed using two experimental duplicates.

For assay [6], the system named is microvascular endothelial cells (MEC). In words: MEC adhesion assay. It is filed as cell-based. The protocol: as §1
Assay [7] shares this test system. In words: MEC migration assay. It is filed as cell-based. On the procedure: as §2
Assay [8] deals with choroidal neovascularization. In words: Laser-induced choroidal neovascularization model. It is filed as in vivo, C57BL/6 mice. The note with it: 0.01, 0.1, or 1 μg into the mouse eye. On the procedure:
The ocular laser-induced choroidal neovascularization (NV) model of wet age-related macular degeneration was used for testing. 5-6-week-old female pathogen-free C57BL/6 mice were anesthetized with ketamine hydrochloride (100 mg/kg body weight) and pupils were dilated. Laser photocoagulation (75-μm spot size, 0.1-sec duration, 120 mW) was performed in the 9, 12, and 3 o'clock positions of the posterior pole of each eye with the slit lamp delivery system of an OcuLight GL diode laser (Iridex, Mountain View, Calif.) and a handheld cover slip as a contact lens to view the retina. Production of a tissue bubble by the laser, which indicates rupture of Bruch's membrane, is an important factor in obtaining choroidal NV; therefore, only burns in which a bubble is produced are included in the study. […] At day 7 the mice that received the naked peptides were dosed again whereas the mice that received the particles were administered PBS. Intravitreous injections were done under a dissecting microscope with a Harvard Pump Microinjection System and pulled glass micropipettes. After 14 days, the mice were perfused with 1 mL of PBS containing 50 mg/mL of fluorescein-labeled dextran (2×10^6 Daltons average molecular weight; Sigma-Aldrich, St. Louis, Mo.) and choroidal flat mounts were examined by fluorescence microscopy. Images were captured with a Nikon Digital Still Camera DXM1200 (Nikon Instruments Inc., New York, N.Y.). Image analysis software (Image-Pro Plus; Media Cybernetics, Silver Spring, Md.) was used to measure the total area of choroidal NV at each rupture site with the investigator masked with respect to treatment group.

In the case of LRRFSTMPFMFININNVINF-NH2 [SP2024], the IC50 in assay [1] was found to be 1.29 µM; in assay [1] (HUVEC, tables 5, 8-10 and text, read-out: IC50 ± 95% CI (μM), proliferation), 7.45 ± 5.7 µM. The “Activity in Proliferation” value in assay [1] (HUVEC, Yes/No summary) is “Yes”. In addition, the “suppression of tumor growth” value in assay [2] (MDA-MB-231 xenograft in mice, 10 mg/kg daily) is reported as “inhibited tumor growth significantly over the control”. For the same substance, the MDA-MB-231 xenograft inhibition result in assay [2] (mice) was “Active”. In addition, the “inhibition of migration of MDA-MB-231 cells” value in assay [3] is reported as “strong; also recorded: inhibition of cell migration”. For the same substance, the “inhibition of adhesion of MDA-MB-231 cells” value in assay [4] is “strong; also recorded: inhibition of cell adhesion”. Besides, in assay [5], the “inhibition of migration of LEC” value is recorded as “strong”. Besides, in assay [6], the “inhibition of adhesion of MEC” value is reported as “quite active”. Further, the “inhibition of migration of MEC” value in assay [7] was “quite active”. Also, the “area of choroidal neovascularization” value in assay [8] is “generally decreased”.
